Measurements as given in patent US9033962B2, “Photodynamic therapy including light pretreatment” (Case Western Reserve University, priority 2010, dated 2015).

Key:
[1] = used topically on skin lesions; cited from earlier work
[2] = human skin 1-2 hours after Pc 4 applied, no light pretreatment; cited from earlier work
[3] = Pc 4 fluorescence after topical application on mouse ear skin, with or without an initial light dose; type: in vivo; details: Pc 4 0.1 mg/mL topical on mouse ear skin, initial small light dose 50 J/cm2, versus 15 minutes of topical application without light
Excerpt: FIG. 1 is a pair of photographs showing that photoirradiation of mouse ear skin to which Pc 4 had been topically applied facilitates Pc 4 penetration into the skin.
(§1) When treating skin, the area of skin can be covered with an opaque dressing during the interval of time between the first and second photoirradiation to prevent further activation of the photosensitizer by ambient light. While not intending to be bound by theory, the first photoirradiation may increase the ability of the photosensitizing agent to penetrate tissue as a result of breaking up aggregates of the photosensitizing agent and/or by disrupting the tissue barrier as a result of the release of reactive oxygen species. Accordingly, this first photoirradiation can also be referred to as the disruptive photoirradiation, or light pretreatment. The ability of light pretreatment to facilitate the penetration of photosensitizer to lower levels of skin is illustrated by FIGS. 1 and 2.

[4] = Time interval for delivery of photosensitizer through skin, with or without first photoirradiation; type: in vivo; details: after a first photoirradiation
Excerpt: Once the first photoirradiation has been delivered to the area of tissue, a sufficient interval of time should be allowed to pass for an effective amount of the photosensitizer to further penetrate the tissue. In the case of skin tissue, a sufficient interval of time is preferably provided to allow the photosensitizer to reach the lower levels of skin such as the basal epidermis and/or the papillary dermis, which is the upper layer of the dermis immediately beneath the epidermis. The particular layer of skin targeted can vary depending on the disease being treated. Examples of sufficient intervals include 1 hour, 30 minutes, 10 minutes, 5 minutes, or any other interval within this range. In addition to providing sufficient time for the photosensitizer to penetrate the skin to the desired level, care should also be taken to avoid providing too much time, which can result in passage of significant amounts of the photosensitizer beyond the intended site.

[5] = Confocal imaging of skin sections from psoriasis patients with lesions treated with Pc 4 versus Pc 4 plus red light; type: in vivo, human; details: for location of Pc 4 fluorescence in skin: psoriasis lesions
Protocol: FIG. 2 includes 4 sets of images obtained from confocal imaging of skin sections from two psoriasis patients with lesions to which Pc 4 (0.1 mg/ml) versus Pc 4 (0.1 mg/ml) plus 100 J/cm2 of red light (675 nm) was applied.
as §1
A variety of methods are available to determine the amount of energy and/or time necessary for an effective amount of the photosensitizer to reach the desired tissue level, such as a lower level of the skin, under the conditions being used. Such methods can be referred to as photosensitizer localization assays. For example, a biopsy can be obtained after administration of the photosensitizer from which the photosensitizer is chemically extracted and quantified using conventional analytic techniques such as UV spectrophotometry. The photosensitizer (e.g., Pc 4) can also be identified from biopsy samples using confocal imaging of the fluorescence of the photosensitizer either with or without the use of additional labels targeted at specific intracellular components (e.g., DAPI, mitotracker). Such techniques can be helpful to determine therapeutically effective doses, and also to evaluate non-responding subjects for possible poor photosensitizer permeation through the skin or other complications.

CN(C)CCC[Si](C)(C)O[Si]1(O)n2c3c4ccccc4c2N=C2N=C(N=c4c5ccccc5c(n41)=NC1=NC(=N3)c3ccccc31)c1ccccc12 (stereo not shown) [Pc 4, HOSiPcOSi(CH3)2(CH2)3N(CH3)2]
safety profile [1]: excellent safety profile
absorption in the epidermis [2]: significant absorption
absorption in the papillary dermis [2]: minimal to no absorption
depth of Pc 4 in skin (Pc 4 fluorescence) [3]: enhanced
time interval needed for delivery through skin [4]: fifteen
location of Pc 4 fluorescence in skin ([5]; Pc 4 0.1 mg/ml alone, after more than one hour of application): limited to the stratum corneum
location of Pc 4 fluorescence in skin ([5]; Pc 4 0.1 mg/ml for 1 hour followed by 100 J/cm2 red light (675 nm)): not only in the stratum corneum but also in the epidermis and upper dermis
Pc 4 fluorescence in the cells within the epidermis and upper dermis (higher magnification) ([5]; Pc 4 + light (100 J/cm2, 675 nm)): there is indeed Pc 4 fluorescence
Pc 4 fluorescence in the cells within the epidermis and upper dermis (higher magnification) ([5]; Pc 4 alone): not observed
absorption of Pc 4 into the epidermis and upper dermis ([5]; initial dose of light on psoriatic lesions in humans to which Pc 4 has been applied): facilitates the absorption
